Test results reported in patent publication US6187906A, “Methods to improve neural outcome” (Aukland Uniservices Limited, priority 1998, dated 2001).

Key:
[1] = system: hypoxic-ischemic injury to one cerebral hemisphere; assay: Hypoxic-ischemic injury in adult rats, IGF-1 vs MK801 (Experiment 1); assay type: in vivo, Wistar rats; details: 50 μg IGF-1 intraventricular and/or 1 mg MK801, 2 hours after hypoxia; histology at 120 hours; controls 65%
Description: Adult Wistar rats (68 280-320 g) were prepared under 3% halothane/O2 anaesthesia. The right side carotid artery was ligated. A guide cannula was placed on the dura 8.2 mm anterior from bregma and 1.4 mm from midline on the right. The rats were allowed to recover from anaesthesia for 1 hour and were then placed in an incubator with humidity 85±5% and temperature 34±0.5° C. for 1 hour before hypoxia. Oxygen concentration was reduced and maintained at 6±0.2 O2 % hypoxia for 10 minutes. […] The intraventricular injections of 50 μg IGF-1 or vehicle alone were made into the right lateral ventricle at 1 μl/minute under 1.5%-2% halothane anaesthetic. Rats in each treatment group were infused simultaneously. The rats had free access to food during experiment and were euthanized at 120 hours after hypoxia with overdose of sodium pentobarbitol. Briefly, the brain was perfused in-situ with FAM (Formaldehyde, Acetic Acid, Methanol 1:1:8) then paraffin embedded. The sections were stained with Thionin and Acid Fuchsin. The presence of cortical infarction, defined as a region of tissue death or parenchymal pan-necrosis due to death of glia as well as neurons, was determined via light microscopy by an assessor who was blinded to the experimental groupings.

ischemic brain injury = assay: Ischemic brain injury in fetal sheep, postischemic seizures and neuronal loss (Experiment 2); assay type: in vivo
Excerpt: The objective of this study was to compare the effects of treatment either with IGF-1 (see FIG. 2) and previously published work with the NMDA antagonist […] after an ischemic brain injury on postischemic seizures and neuronal losses in fetal sheep. (Tan et al Ann Neurol 32:677-682 (1992)).
The methods were those of an earlier study (Tan et al Ann Neurol 32:677-682 (1992)). Briefly, late gestation fetal sheep were chronically instrumented to record EEG, nuchal activity and blood pressure, and were then returned to the uterus. Cortical EEG activity nuchal activity and blood pressure were recorded throughout he experiment and the fetal brain subjected to 30 minutes of ischemia. Two hours later they were treated by an infusion of either 1 μg IGF-1 (n=6) or vehicle (artificial CSF) (n=6) into the lateral ventricle. Five days later the brains were fixed and assessed for neuronal loss as described previously (Tan et al Ann Neurol 32:677-682 (1992)).
In all cases the vehicle is the left-hand column and the effects of 1 μg of IGF-1 is on the right.

C[C@]12N[C@H](Cc3ccccc31)c1ccccc12 [MK801, reference compound]
incidence of cortical infarction [1]: 50%

insulin-like growth factor 1 [IGF-1]
neuronal rescue (neuronal loss scores) (ischemic brain injury; 1 μg IGF-1 into lateral ventricle 2 hours after 30 minutes of ischemia, assessed five days later): rescued neurons
postischemic seizure activity (ischemic brain injury; 1 μg IGF-1 into lateral ventricle 2 hours after ischemia): did not suppress
incidence of cortical infarction [1]: 33%
